# Laboratory results from patent US20070104803A1, “Chinese herbal composition for treating diseases” (Kaohsiung Medical University, priority 2005, published 2007).
# What was measured:
# Type in all cases: in vivo, rat
# Wistar rats [1] = experiment: Acute survival study after LPS
# Protocol: (§1) The animal experiment is approved by the Animal Care and Use Committee at the Kaohsiung Medical University. The male Wistar rats, weighing 250-350 g, are provided by the National Laboratory Animal Breeding and Research Center (Taipei, Taiwan). The rats are housed under conditions of constant temperature and controlled illumination (light regime of 12 h light and 12 h darkness). The rats are allowed food and water ad libitum. They are anesthetized with an intraperitoneal (i.p.) injection of pentobarbital sodium (50 mg/kg). Following tracheal cannulation, systemic arterial blood pressure and heart rate are recorded from the femoral artery with a pressure transducer (Spectramed, Model P10EZ, USA). Body temperature is maintained at 37° C. by an electric heating pad. A femoral vein is cannulated for the administration of LPS (E. coli serotype 026:B6), HBCM, baicalin, or dexamethasone (DEXA), respectively. The rats are injected intravenously with either saline (0.1 ml/kg) or LPS (10 mg/kg) for control and experimental purposes, respectively. All the animals are assigned to one of the following groups: saline only, LPS/saline, LPS/HBCM (75 mg/kg), LPS/baicalin (1.5 mg/kg), and LPS/DEXA (0.5 mg/kg) groups. LPS is injected at a dose of 10 mg/kg, after 10 min, HBCM, baicalin and DEXA are given, respectively.
# A single injection of LPS (10 mg/kg, i.v.) leads to a biphasic arterial hypotension: an initial and transient decrease in arterial mean blood pressure (about 10 min), followed by a delayed and prolonged hypotension. The HBCM (75 mg/kg, i.v.), baicalin (1.5 mg/kg, i.v.) and DEXA (0.5 mg/kg, i.v.) are administrated 10 min after LPS administration. The used dose of baicalin is according to the content of baicalin in HBCM by the HPLC method. Separate groups are used for acute survival study (n=10 each), lung tissue sampling (n=10 each), and blood sampling (n=10 each). […]
# The animals without pulmonary are monitored per 30 minutes for 7 hours after LPS administration. The blood pressure (BP) changes were recorded within 5 hours after LPS injection. […]
# Wistar rats [2] = experiment: Attenuation of LPS-induced arterial hypotension (post-treatment); conditions: HBCM 75 mg/kg, baicalin 1.5 mg/kg, DEXA 0.5 mg/kg i.v. 10 min after LPS 10 mg/kg i.v.; FIG. 3
# Protocol: as §1, with “given, respectively. […]” for “given, respectively.”
# IL-1β = experiment: LPS-induced plasma IL-1β immunoreactivity (post-treatment, ELISA); conditions: LPS 10 mg/kg i.v.; post-treatment 10 min after LPS; up to 5 hours; FIG. 9
# Protocol: as §1, with “given, respectively. […]” for “given, respectively.”
# MCP-1 = experiment: LPS-induced plasma MCP-1 immunoreactivity (post-treatment, ELISA); conditions: LPS 10 mg/kg i.v.; post-treatment 10 min after LPS; up to 5 hours; FIG. 9
# Protocol: as §1, with “given, respectively. […]” for “given, respectively.”
# iNOS = experiment: LPS-induced iNOS in lung tissues (western blot); conditions: 5 h after LPS 10 mg/kg; HBCM 75, baicalin 1.5, DEXA 0.5 mg/kg post-treatment; FIG. 8
# Protocol: as §1, with “All the animals are assigned to one of the following groups: saline only, LPS/saline, LPS/HBCM (75 mg/kg), LPS/baicalin (1.5 mg/kg), and LPS/DEXA (0.5 mg/kg) groups. LPS is injected at a dose of 10 mg/kg, after 10 min, HBCM, baicalin and DEXA are given, respectively.” left out
# (§2) The HBCM, baicalin and DEXA are post-treated 10 minutes after the administration of LPS. […] The expression of each protein is detected by enhanced chemiluminescence using Hyperfilm and ECL reagent (Amersham, UK).
# TGF-β = experiment: LPS-induced TGF-β in lung tissues (western blot); conditions: 5 h after LPS 10 mg/kg; HBCM 75, baicalin 1.5, DEXA 0.5 mg/kg post-treatment; FIG. 8
# Protocol: as §1, with “All the animals are assigned to one of the following groups: saline only, LPS/saline, LPS/HBCM (75 mg/kg), LPS/baicalin (1.5 mg/kg), and LPS/DEXA (0.5 mg/kg) groups. LPS is injected at a dose of 10 mg/kg, after 10 min, HBCM, baicalin and DEXA are given, respectively.” left out
# as §2
# ICAM-1 = experiment: LPS-induced ICAM-1 in lung tissues (western blot); conditions: 5 h after LPS 10 mg/kg; HBCM 75, baicalin 1.5, DEXA 0.5 mg/kg post-treatment; FIG. 8
# Protocol: as §1, with “All the animals are assigned to one of the following groups: saline only, LPS/saline, LPS/HBCM (75 mg/kg), LPS/baicalin (1.5 mg/kg), and LPS/DEXA (0.5 mg/kg) groups. LPS is injected at a dose of 10 mg/kg, after 10 min, HBCM, baicalin and DEXA are given, respectively.” left out
# as §2
# TNF-α = experiment: LPS-induced plasma TNF-α immunoreactivity (post-treatment, ELISA); conditions: LPS 10 mg/kg i.v.; HBCM 75, baicalin 1.5, DEXA 0.5 mg/kg 10 min after LPS; FIG. 9
# Protocol: as §1, with “given, respectively. […]” for “given, respectively.”
# [3] = system: phosphorylated p38 MAP kinase; experiment: LPS-induced phosphorylated p38 MAP kinase in lung tissues (western blot); conditions: 5 h after LPS 10 mg/kg; HBCM 75, baicalin 1.5, DEXA 0.5 mg/kg post-treatment; FIG. 8
# Protocol: as §1, with “All the animals are assigned to one of the following groups: saline only, LPS/saline, LPS/HBCM (75 mg/kg), LPS/baicalin (1.5 mg/kg), and LPS/DEXA (0.5 mg/kg) groups. LPS is injected at a dose of 10 mg/kg, after 10 min, HBCM, baicalin and DEXA are given, respectively.” left out
# as §2
# Wistar rats [4] = experiment: LPS-induced lung edema (wet/dry weight ratio); conditions: 5 hours after LPS; HBCM, baicalin, DEXA given 10 min after LPS; FIG. 7
# Protocol: as §1, with “The rats are injected intravenously with either saline (0.1 ml/kg) or LPS (10 mg/kg) for control and experimental purposes, respectively. All the animals are assigned to one of the following groups: saline only, LPS/saline, LPS/HBCM (75 mg/kg), LPS/baicalin (1.5 mg/kg), and LPS/DEXA (0.5 mg/kg) groups. LPS is injected at a dose of 10 mg/kg, after 10 min, HBCM, baicalin and DEXA are given, respectively.” left out
# The water content of the lungs is determined by calculating the wet/dry weight ratio of lung tissues at 5 hours after LPS administration. […] The dry weight is determined after the lung is dried at 80° C. for 72 hours, and the edema index (wet/dry weight ratio) is calculated by dividing the wet weight by the dry weight. The edema index indicates the water content of the lung, which is determined by calculating the wet/dry weight ratio of lung tissues at 5 hours after LPS administration.
SMILES,"time all the rats survive (Wistar rats [1]; LPS 10 mg/kg, DEXA 0.5 mg/kg i.v. 10 min after LPS, n=10)",LPS-induced prolonged arterial hypotension (Wistar rats [2]),elevation of plasma IL-1β vs LPS/saline group (IL-1β),elevation of plasma MCP-1 vs LPS/saline group (MCP-1),"survival for 7 hours (Wistar rats [1]; LPS 10 mg/kg, HBCM 75 mg/kg or baicalin 1.5 mg/kg i.v. 10 min after LPS, n=10) [%]","survival rate compared with LPS/saline group (Wistar rats [1]; post-treatment 10 min after LPS 10 mg/kg, FIG. 6)",LPS-induced iNOS expression in lung tissues (iNOS),LPS-induced TGF-β expression in lung tissues (TGF-β),LPS-induced ICAM-1 expression in lung tissues (ICAM-1),elevation of plasma TNF-α vs LPS/saline group (TNF-α),LPS-induced phosphorylated p38 MAP kinase expression in lung tissues [3],LPS-induced lung edema (wet/dry weight ratio) (Wistar rats [4])
"C[C@@H]1C[C@H]2[C@@H]3CCC4=CC(=O)C=C[C@]4(C)[C@@]3(F)[C@@H](O)C[C@]2(C)[C@@]1(O)C(=O)CO [DEXA, dexamethasone]",more than 7 hours,,,,,,,,,,,
O=C(O)[C@H]1O[C@@H](Oc2cc3oc(-c4ccccc4)cc(=O)c3c(O)c2O)[C@H](O)[C@@H](O)[C@@H]1O [baicalin],,significantly attenuates,lower,lower,90,significantly better survival rate,significant inhibition,significant inhibition,significant inhibition,significantly lower,significant inhibition,significantly attenuates
